Assay results as given in US20250325468A1, “PEPTIDE INHIBITING FORMATION OF SNARE COMPLEX AND USE THEREOF” (MEDYTOX INC., priority 2020, published 2025).
“And” between values parts separate entries of the source, which are not always exact repeats. Identical values can stand only once. Where no end group is shown, it is not given here.

Tests used:
[1] = system: artificial skin (Neoderm-ED); assay: Skin irritation test on artificial skin (MTT); format: cell-based; settings: FIG. 4; 20 μl of 100 μg/ml peptide; 50% or greater viability = no irritation
Experimental: (§1) 1×PBS and 5% SDS were evenly applied to artificial skin (Neoderm-ED) purchased from Tegoscience (South Korea) to prepare a negative control and a positive control, respectively. An experimental group was evenly coated with 20 μl of 100 μg/ml C2-P4 peptide. After allowing the samples to react at room temperature for 15 minutes, the resultants were each transferred to the wells of a 12-well culture plate and cultured in an incubator of 37° C. and 5% CO2 for 15 minutes. Once the reaction was completed, the artificial skin was washed twice with PBS and transferred to the wells of a new 12-well culture plate and cultured for 42 hours. Once the culture was completed, 2 ml of 0.3 mg/ml MTT solution was added, and the cells were cultured for 3 hours. The sample in each well of the plate was decolorized by adding 0.04 N HCl-isopropanol, and placed in the Spectra MAX i3, and absorbance of the sample in each well was measured at 580 nm.
(§2) FIG. 4 is a graph showing the results of measuring effect of C2-P4 on skin irritation. […] Here, when the cell viability of a sample was 50% or greater, the sample was determined to have no irritation.

[2] = Skin irritation test on artificial skin (MTT); format: cell-based; settings: human, artificial skin (Neoderm-ED, Tegoscience); FIG. 4; 20 μl of 100 μg/ml peptide; 50% or greater = no irritation; read-out: cell viability
Experimental: as §1, §2

B16-F10 cells = assay: Raw material toxicity test: MTT analysis; format: cell-based, mice; settings: FIG. 3; 12.5 μM, 25 μM and 50 μM, 48 hours
Experimental: B16-F10 cells purchased from the Korean Cell Line Bank were inoculated into 100 μL of a DMEM medium containing 10% FBS at a concentration of 1×10^4 cells/well in a 96-well plate and cultured for 48 hours. B16-F10 cells are a murine melanoma cell line derived from mice. These cells are adherent and have an epithelial morphology. Thereafter, the C2-P4 peptide was diluted in a DMEM culture medium at concentrations of 12.5 μM, 25 μM, and 50 μM to replace the medium, and the cells were cultured for 48 hours. After centrifuging the plate at 1,000 rpm for 10 minutes, the culture medium solution was removed. Each well was washed twice with PBS, and a 0.5 mg/ml MTT solution diluted in a DMEM medium was added thereto. The cells were cultured in an incubator of 37° C. and 5% CO2 for 2 hours. After centrifuging the plate at 1,000 rpm for 10 minutes, the MTT solution was removed. Each well was washed twice with PBS, and 150 μL of DMSO was added to dissolve the produced formazan. The plate was placed in a spectrometer (Spectra MAX i3), and absorbance of the sample in each well was measured at 590 nm.

MITF gene = MITF gene activity by real-time PCR; format: cell-based, mice; settings: Table 2; three replicates; C2-P4 10 μM, α-MSH 50 nM, 48 hours
Experimental: B16-F10 cells purchased from the Korean Cell Line Bank were inoculated into 3 mL of a DMEM medium containing 10% FBS at a concentration of 1×10^5 cells/well in a 6-well plate and cultured in an incubator of 37° C. and 5% CO2 for 24 hours to form a cell monolayer. The medium in a negative control was replaced with a DMEM medium, and the medium in peptide-treated experimental groups and α-MSH experimental groups was replaced with a medium containing 10 μM of each of the peptides and 50 nM of α-MSH, respectively, and then the cells were cultured for 48 hours. Each of the experimental groups was washed twice with PBS, the cells were obtained with trypsin-EDTA and centrifuged at 1500 rpm for 5 minutes to separate the cells. RNA was extracted from the separated cells using Trizol, and each 1,000 ng of cDNA was synthesized using reverse transcriptase. Using 100 ng of each of the synthesized cDNAs, the expression levels of GAPDH and […] were confirmed using real-time PCR. The primers used for the real-time PCR were SEQ ID NOs: 9 and 10. Alternatively, the polynucleotide sets of SEQ ID NOs: 11 and 12 were used.

Substance	skin irritation [1]	viability at 0.5 h, 100 µg/mL [2] [%]	cell viability compared to the negative control (scrambled peptide) (B16-F10 cells)	cytotoxicity (MTT assay) (B16-F10 cells)	MITF (real-time PCR value) (MITF gene)
RRWRRWNRFNRRRCRRRLQQTQAQVDEVVDIM [C2-P4]	no irritation	~85	similar	no cytotoxicity	–
α-MSH	–	–	–	–	30.05 and 29.98 and 30.17
